Here are results for 14 compounds from patent publication US10781185B2, “Heterocyclic compounds for the inhibition of PASK” (BioEnergenix LLC, priority 2009, dated 2020).

Experiment [1] concerns the target PASK (Homo sapiens (Human), UniProt Q96RG2). The experiment is described as follows: PAS Kinase Luminescence Assay (Kinase-Glo). Type of experiment: biochemical. To be noted: purified hPASK from insect cells, read-out: IC50 Kinase Domain. The procedure: Biochemical Assay for hPASK Activity
PAS Kinase Luminescence Assay
One assay for purified hPASK activity utilizes the Kinase-Glo Luminescent Kinase Assay (Promega), which quantifies the amount of ATP remaining in solution following kinase reaction. The assay is carried out in a 96-well plate format and is performed by adding a volume of Kinase-Glo Reagent (Promega, catalog # V3771) equal to the volume of solution in the well of a completed kinase reaction. Kinase-Glo reagent contains Luciferase and its substrate. After addition to a kinase reaction it allows to measure luminescence. The amount of ATP left in solution at the time of Kinase-Glo Plus addition is directly proportional to the luminescence that is measured in each well, and inversely correlated with kinase activity.
Purified hPASK from insect cells (0.02 μg) is added to a 50 μL reaction mix containing 40 mM HEPES (pH 7.0), 100 mM KCl, 5 mM MgCl2, 1 mM DTT and […] of MBP protein. Inhibitory compounds are then added and the mixture is incubated for 10 min at 25° C. before adding 5 μL of ATP (at desired concentration). The reaction is allowed to proceed at 25° C. for 1 hour before adding 50 μL of Kinase-Glo reagent. The luminescence is measured as soon as 10 minutes after Kinase-Glo reagent is added.
(In general: Kinase-Glo measures the ATP left after a reaction by luminescence.)

The target in experiment [2] is PASK (UniProt # Q96RG2; human recombinant N-terminal GST tagged construct, residues 879-1323) (Homo sapiens (Human), UniProt Q96RG2). Nature of the experiment: PASK ATP Radiochemical Assay. Type of experiment: biochemical. To be noted: 33P-ATP radiochemical, Myelin Basic Protein substrate; read-out: IC50 Kinase Domain. The method, then:
PASK ATP Radiochemical Assay
Test compounds in DMSO are then added and the mixture, followed by delivery of ^33P-ATP (specific activity 0.01 μCi/μl final) to initiate the reaction. […] The entire reaction mixture is washed through onto a P81 Phosphocellulose paper and washed three times for 10 minutes in 75 mM phosphoric acid and once in methanol prior to drying and scintillation counting.

Experiment [3] concerns C57Bl6 mice fed a high fat diet. The experiment is described as follows: Mouse High Fat Dietary Model with fast/re-feed. The experiment is classed as in vivo. The note with it: for reduction in body weight vs vehicle: fast/re-feed mice. The method, then:
Mouse High Fat Dietary Model
A standard model of human hyperlipidemia and insulin resistance is the mouse fed a high fat diet for several weeks (31, 33). Additionally, since hepatic lipid synthesis is known to be regulated by food consumption, the fast/re-feed cycle of Horton et al. (32) was incorporated into the chronic high fat diet model. The compound was evaluated in this model as an agent to restore insulin sensitivity and lower blood lipids. The chronic high fat diet was fed to mice to simulate a standard Western diet which is elevated in calories from high fat and carbohydrate intake. This and similar models of dietary induced obesity, insulin insensitivity and elevated serum lipids and cholesterol are used as mouse and rat models of human pathology including hyperlipidemia, type II diabetes, atherosclerosis, obesity, cardiovascular and liver disease. These models have been used as excellent predictors of efficacy in human clinical trials (PPAR and FXR agonists).
The farnesoid X receptor (FXR) is a ligand-activated transcription factor and a member of the nuclear receptor superfamily. […] While the mechanism of action of FXR agonists is clearly distinct from PASK inhibition, WAY-362450 has been used as a positive control compound producing physiologically beneficial changes in glucose and lipid metabolism resembling inhibition of PASK. Throughout these in vivo assays, WAY-362450 has been used as a control compound, and will be referred to as such.
Male C57Bl6 mice were obtained from Jackson Laboratories and had been fed a high fat diet (60% kcal fat) for eight weeks. The mice were fed an identical high fat diet (Research Diet D12492) upon arrival and during the study. All mice were treated with the subject compound at 30 or 100 mg/kg, control compound (WAY-362450) at 30 mg/kg or vehicle by oral gavage daily for three days. On the final day, 10 animals from each group began an 24 hour fast and then were sacrificed (fasted groups 1a,2a,3a,4a). Alternatively, 10 animals from each group underwent a 24 hour fast followed by a 12 hour re-feed period with the same high fat diet ad libitum and then were sacrificed (re-fed groups 1b,2b,3b,4b).
Body weights were monitored at the start and end of the protocol. After completing the fast or fast/re-feed conditions, the mice were given avertin for anesthesia by intraperitoneal administration. Whole blood was collected by cardiac puncture and the mice were terminated by cervical dislocation. Livers were collected surgically, weighed and immediately frozen in liquid nitrogen. The blood was placed in Li-heparin treated tubes, centrifuged to collect plasma and the plasma frozen.
The plasma was analyzed by standard colorimetric assays for glucose, insulin, triglycerides and cholesterol. Frozen liver samples were pulverized and extracted in ethanolic KOH and analyzed for liver triglycerides and cholesterol.

Experiment [4] concerns Sprague Dawley rats on a high fructose diet. The experiment is described as follows: Rat High Fructose Model with Fast/Re-Feed. The experiment is classed as in vivo. To be noted: for body weight change relative to the Vehicle group: FIG. 1; for decrease in plasma glucose compared to vehicle / reduction in plasma insulin levels: after fast and re-feed. The procedure: Rat High Fructose Model with Fast/Re-Feed
Another standard model of human hyperlipidemia and insulin resistance is the rat fed a high fructose diet for several weeks (33). Additionally, since hepatic lipid synthesis is known to be regulated by food consumption, the fast/reefed cycle of Horton et al. (32) was incorporated into the chronic high fructose diet model. A compound disclosed above was evaluated in this model as an agent to restore insulin sensitivity and lower blood lipids.
Eight week old male Sprague Dawley rats were purchased from Harlan, Inc. The rats weighed 200-225 g upon arrival and were divided into groups as detailed in Table 2 and were immediately placed on a high fructose diet (60% kcal fructose; Open Source Diet # D00111301) ad libitum for three weeks. During the last week of feeding the high fructose diet, the rats were dosed with vehicle (5% solutol, 8% β cyclo-dextrin), subject compound at 30 mg/kg or 100 mg/kg or the control compound at 30 mg/kg by oral gavage once daily for 7 days. On the final day, all animals were placed on a […] followed by a 12 hour re-feed period on the high fructose diet ad libitum.
Body weights were monitored throughout the protocol. After completing the fast or fast/re-feed conditions, the rats were given avertin for anesthesia by intraperitoneal administration. Whole blood was collected by cardiac puncture and the rats were terminated by cervical dislocation. Livers were collected surgically, weighed and immediately frozen in liquid nitrogen. The blood was placed in Li-heparin treated tubes, centrifuged to collect plasma and the plasma frozen.
The plasma was analyzed by standard colorimetric assays for glucose, insulin, triglycerides and cholesterol.

Setting [5] is: 30 mg/kg oral gavage daily for three days.
[6] abbreviates: fasted and re-fed mice, 30 mg/kg.
Where [7] appears, read: fasted only mice, 30 mg/kg oral gavage daily for three days.
Setting [8] is: 30 mg/kg oral gavage once daily for 7 days.

Sequence of PASK (Homo sapiens (Human), UniProt Q96RG2) (Q96RG2 999-1251): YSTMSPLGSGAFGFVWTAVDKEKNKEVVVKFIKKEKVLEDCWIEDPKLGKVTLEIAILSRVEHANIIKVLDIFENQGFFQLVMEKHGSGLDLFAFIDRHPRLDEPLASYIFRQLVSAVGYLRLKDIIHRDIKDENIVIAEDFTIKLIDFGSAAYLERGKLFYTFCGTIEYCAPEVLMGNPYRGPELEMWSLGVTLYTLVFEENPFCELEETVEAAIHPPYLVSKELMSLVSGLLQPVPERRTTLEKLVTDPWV
Sequence of PASK (UniProt # Q96RG2; human recombinant N-terminal GST tagged construct, residues 879-1323) (Homo sapiens (Human), UniProt Q96RG2) (Q96RG2 879-1323, change not shown): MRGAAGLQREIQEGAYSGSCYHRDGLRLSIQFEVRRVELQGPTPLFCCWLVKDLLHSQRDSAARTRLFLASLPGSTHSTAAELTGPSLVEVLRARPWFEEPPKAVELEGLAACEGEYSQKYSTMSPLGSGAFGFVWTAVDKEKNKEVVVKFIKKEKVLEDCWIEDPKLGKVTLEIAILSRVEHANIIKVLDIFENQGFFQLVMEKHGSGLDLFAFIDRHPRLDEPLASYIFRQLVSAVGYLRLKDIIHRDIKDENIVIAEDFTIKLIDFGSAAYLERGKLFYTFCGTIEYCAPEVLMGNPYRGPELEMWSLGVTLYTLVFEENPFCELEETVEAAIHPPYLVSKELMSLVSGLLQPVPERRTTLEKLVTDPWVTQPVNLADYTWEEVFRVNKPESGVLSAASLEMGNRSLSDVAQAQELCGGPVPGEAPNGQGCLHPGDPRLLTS

As usually defined, the IC50 is the concentration needed to halve the response being measured. Take `O=C(O)c1ccc2nc(N3CCC(c4ccc(Cl)cc4)CC3)c(-c3ccc(F)cc3)nc2c1` [Example 24, 2-(4-(4-Chlorophenyl)piperidin-1-yl)-3-(4-fluorophenyl)quinoxaline-6-carboxylic acid]: the IC50 at PASK [1] and at PASK [2] was less than 10 µM in each case.
In the case of `O=C(O)c1ccc2nc(-c3ccccc3)c(N3CCN(c4ncccn4)CC3)nc2c1` [Example 19, 2-Phenyl-3-(4-(pyrimidin-2-yl)piperazin-1-yl)quinoxaline-6-carboxylic acid], the IC50 on PASK [1] and at PASK [2] was less than 10 µM throughout.
As to `O=C(O)c1ccc2nc(-c3ccccc3)c(N3CCN(c4ccc5ccccc5n4)CC3)nc2c1` [Example 21, 2-phenyl-3-(4-(quinolin-2-yl)piperazin-1-yl)quinoxaline-6-carboxylic acid], the IC50 at PASK [1] and at PASK [2] was less than 10 µM throughout.
With `O=C(O)c1ccc2nc(-c3ccccc3)c(N3CCOCC3)nc2c1` [Example 16, 3-Morpholino-2-phenylquinoxaline-6-carboxylic acid], the concentration for half-maximal inhibition (IC50) on PASK [1] and at PASK [2] was less than 10 µM throughout.
For `CN1CCCN(c2nc3cc(C(=O)O)ccc3nc2-c2ccccc2)CC1` [Example 17, 3-(4-Methyl-1,4-diazepan-1-yl)-2-phenylquinoxaline-6-carboxylic acid], the IC50 at PASK [1] and at PASK [2] was less than 10 µM each time.
Regarding `O=C(O)c1ccc2nc(N3CCCCC3)c(-c3ccccc3)nc2c1` [Example 23, 3-Phenyl-2-(piperidin-1-yl)quinoxaline-6-carboxylic acid], the IC50 on PASK [1] was less than 10 µM.
Same read-out and setting: next, `O=C(O)c1ccc2nc(N3CCC(c4cccc(Cl)c4)CC3)c(-c3ccc(F)cc3)nc2c1` [Example 25, 2-(4-(3-Chlorophenyl)piperidin-1-yl)-3-(4-fluorophenyl)quinoxaline-6-carboxylic acid]: less than 10 µM.
In the case of `CC(C)OC(=O)C1=CN(C(=O)c2ccc(F)c(F)c2)CC(C)(C)c2c1[nH]c1ccccc21` [WAY-362450, reference compound], the “effects on liver weight” value in experiment [3] (30 mg/kg) is recorded as “identical to those of the subject compound at the same dose”. Also, the “increase in plasma glucose vs vehicle” value in experiment [3] (fast and re-feed mice, 30 mg/kg) is 7.6%. Further, in experiment [3] (setting [5]), the “reduction in body weight vs vehicle” value worked out at 6.5%. Moreover, the “decrease in plasma insulin vs vehicle” value in experiment [3] (setting [6]) turned out to be 22%. In experiment [3] (fasted only mice, 30 mg/kg), the “decrease in plasma glucose vs vehicle” value came out at 19% and the “decrease in plasma insulin vs vehicle” value worked out at 39%. The “decrease in body weight vs vehicle” value in experiment [3] (setting [7]) came out at 4%. Further, the “body weight change relative to the Vehicle group” value in experiment [4] (setting [8]) is reported as “significant increase in body weight”. Moreover, in experiment [4] (30 mg/kg, 7 days), the “increase in plasma cholesterol vs vehicle” value was 17%, the “reduction in plasma triglycerides vs vehicle” value is recorded as 68%, the “decrease in plasma glucose compared to vehicle” value is “did not alter plasma glucose concentrations” and the “reduction in plasma insulin levels” value was 63.2%.
Turning to `COc1ccc(-c2nc3ccc(-c4nnn[nH]4)cc3nc2-c2ccc(OC)cc2)cc1` [Example 31, 2,3-Bis(4-methoxyphenyl)-6-(1H-tetrazol-5-yl)quinoxaline], the IC50 at PASK [1] and at PASK [2] was less than 10 µM each time.
Turning to `CC(C)N(C)c1nc2cc(C(=O)O)ccc2nc1-c1ccc(F)cc1` [subject compound], the “reduction in liver weight” value in experiment [3] (30 and 100 mg/kg, trend of dose dependent reductions) is reported as 7-9%. Besides, the “decrease in plasma glucose vs vehicle” value in experiment [3] (fast and re-feed mice, highest dose 100 mg/kg) was “up to 21%”; in experiment [3] (fasted only mice, 30 mg/kg) it was 30%; in experiment [3] (fasted only mice, 100 mg/kg) it was 43%. Moreover, the “reduction in body weight vs vehicle” value in experiment [3] (setting [5]) is reported as 2.7%; in experiment [3] (100 mg/kg oral gavage daily for three days) it was 5.1%. In addition, the “decrease in plasma insulin vs vehicle” value is listed as 10% in experiment [3] (setting [6]); 28% in experiment [3] (fasted and re-fed mice, 100 mg/kg); “up to 26%” in experiment [3] (fasted only mice, 30 and 100 mg/kg). Further, the “decrease in body weight vs vehicle” value in experiment [3] (setting [7]) came out at 1.8%; in experiment [3] (fasted only mice, 100 mg/kg oral gavage daily for three days), 5.1%. Further, the “body weight change relative to the Vehicle group” value in experiment [4] (setting [8]) is recorded as “modest increase in body weight”; in experiment [4] (100 mg/kg oral gavage once daily for 7 days), “modest decrease in body weight”. The “decrease in plasma cholesterol vs vehicle” value in experiment [4] (30 mg/kg, 7 days) is recorded as 5.7%; in experiment [4] (100 mg/kg, 7 days) it was 10%. The “reduction in plasma triglycerides vs vehicle” value is given as 25.1% in experiment [4] (30 mg/kg, 7 days) and 54.3% in experiment [4] (100 mg/kg, 7 days). The “decrease in plasma glucose compared to vehicle” value is recorded as 21.5% in experiment [4] (30 mg/kg, 7 days) and 26.3% in experiment [4] (100 mg/kg, 7 days). Moreover, the “reduction in plasma insulin levels” value was 15.4% in experiment [4] (30 mg/kg, 7 days) and 31.4% in experiment [4] (100 mg/kg, 7 days). In addition, the “maximal reduction in liver weight” value in experiment [4] (100 mg/kg, 7 days) is on record as “about 4%”.
In the case of `O=C(O)c1ccc2nc(N3CCN(c4ccccn4)CC3)c(-c3ccc(F)cc3)nc2c1` [Example 27, 3-(4-Fluorophenyl)-2-(4-(pyridin-2-yl)piperazin-1-yl)quinoxaline-6-carboxylic acid], on PASK [1], the IC50 is less than 10 µM.
Take `O=C(O)c1ccc2nc(N3CCC(c4ccccc4)CC3)c(N3CCC(c4ccccc4)CC3)nc2c1` [Example 30, 2,3-Bis(4-phenylpiperidin-1-yl)quinoxaline-6-carboxylic acid]: the IC50 at PASK [1] and at PASK [2] was less than 10 µM each time.
As for `O=C(O)c1ccc2nc(N3CCCCCC3)c(-c3ccccc3)nc2c1` [Example 22, 2-(Azepan-1-yl)-3-phenylquinoxaline-6-carboxylic acid], the IC50 on PASK [1] was greater than 10 µM.
The same measure, in the same setting: next, `COc1ccc(C2CCN(c3nc4cc(C(=O)O)ccc4nc3-c3ccccc3)CC2)cc1` [Example 11, 3-(4-(4-Methoxyphenyl)piperidin-1-yl)-2-phenylquinoxaline-6-carboxylic acid]: less than 10 µM.
